Results as given in ChEMBL document CHEMBL1201862, “PubChem BioAssay data set” (2004).
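Five compound concentrations were applied to cells in 96-well plates for 48 hours; endpoints were derived by simple linear interpolation of the resulting dose-response curve. At the GI50, growth is halved.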 Activity calls are given as the source filed them. Rule as the data show it: active = GI50 up to about 1.1 µM and inactive = higher.

Tests used:
Experiment in all cases: inhibition of tumour cell growth, NCI panel, 48 h
MDA-N = system: MDA-N
IGROV-1 = system: IGROV-1
BT-549 = system: BT-549
HT-29 = system: HT-29
MDA-MB-435 = system: MDA-MB-435
HCT-116 = system: HCT-116
SW-620 = system: SW-620
SN12C = system: SN12C
U-251 = system: U-251
CCRF-CEM = system: CCRF-CEM
OVCAR-3 = system: OVCAR-3
OVCAR-4 = system: OVCAR-4
UACC-257 = system: UACC-257
TK-10 = system: TK-10
OVCAR-8 = system: OVCAR-8
EKVX = system: EKVX
OVCAR-5 = system: OVCAR-5
SF-295 = system: SF-295
SR = system: SR
RPMI-8226 = system: RPMI-8226

SMILES	GI50 (MDA-N)	GI50 (IGROV-1)	GI50 (BT-549)	GI50 (HT-29)	GI50 (MDA-MB-435)	GI50 (HCT-116)	GI50 (SW-620)	GI50 (SN12C)	GI50 (U-251)	GI50 (CCRF-CEM)	GI50 (OVCAR-3)	GI50 (OVCAR-4)	GI50 (UACC-257)	GI50 (TK-10)	GI50 (OVCAR-8)	GI50 (EKVX)	GI50 (OVCAR-5)	GI50 (SF-295)	GI50 (SR)	GI50 (RPMI-8226)
O=C1CN(c2cccc(Cl)c2)C(=O)CN1NCNN1CC(=O)N(c2cccc(Cl)c2)CC1=O	> 100 µM (inactive)	> 100 µM (inactive)	> 100 µM (inactive)	> 100 µM (inactive)	> 100 µM (inactive)	> 100 µM (inactive)	> 100 µM (inactive)	> 100 µM (inactive)	> 100 µM (inactive)	> 100 µM (inactive)	> 100 µM (inactive)	> 100 µM (inactive)	> 100 µM (inactive)	> 100 µM (inactive)	> 100 µM (inactive)	> 100 µM (inactive)	> 100 µM (inactive)	> 100 µM (inactive)	> 100 µM (inactive)	> 100 µM (inactive)
CCOC(=O)C(Cc1ccc(N(CCCl)CCCl)cc1)NC(=O)CCCN1C(=O)CN=C(c2ccccc2)c2cc(Cl)ccc21 (stereo not given)	6.11 µM (inactive)	4.37 µM (inactive)	41.9 µM (inactive)	15.3 µM (inactive)	16.1 µM (inactive)	21 µM (inactive)	10.2 µM (inactive)	4.43 µM (inactive)	27.3 µM (inactive)	2.61 µM (inactive)	2.22 µM (inactive)	18.6 µM (inactive)	3.6 µM (inactive)	> 66.5 µM (inactive)	18.7 µM (inactive)	41.3 µM (inactive)	> 100 µM (inactive)	51.4 µM (inactive)	2.31 µM (inactive)	3.48 µM (inactive)
C/C=C(\N=C=S)C(=O)OC1C(COC(C)=O)OC([C@]2(O)CC(=O)C(N)=C(C(=O)O)C2=O)C(O)C1OC1CC(OC)C(O)([C@@H](C)OC(=O)[C@@H](C)CC)C(C)O1 (stereo not given in full)	13.2 µM (inactive)	17.7 µM (inactive)	7.43 µM (inactive)	8.49 µM (inactive)	17.3 µM (inactive)	7.83 µM (inactive)	3.01 µM (inactive)	15 µM (inactive)	9.27 µM (inactive)	2.4 µM (inactive)	15.8 µM (inactive)	4.26 µM (inactive)	15.4 µM (inactive)	16.7 µM (inactive)	5.65 µM (inactive)	12.6 µM (inactive)	20.7 µM (inactive)	18.1 µM (inactive)	4.39 µM (inactive)	2.11 µM (inactive)
CC(=O)OCC1OC(O/C=C(\CN=[N+]=[N-])C(C)=O)C(OC(C)=O)C(OC(C)=O)C1OC(C)=O (stereo not given)	8.85 µM (inactive)	15.6 µM (inactive)	13.4 µM (inactive)	11.4 µM (inactive)	4.57 µM (inactive)	3.51 µM (inactive)	3.53 µM (inactive)	7.96 µM (inactive)	12.2 µM (inactive)	1.39 µM (inactive)	8.59 µM (inactive)	12.5 µM (inactive)	3.56 µM (inactive)	6.19 µM (inactive)	6.01 µM (inactive)	14.7 µM (inactive)	16.5 µM (inactive)	37.2 µM (inactive)	2.37 µM (inactive)	1.74 µM (inactive)
C=C(C)C(=O)/N=C(\N)NC#N	39.4 µM (inactive)	> 46.9 µM (inactive)	14.8 µM (inactive)	62.8 µM (inactive)	131 µM (inactive)	31.6 µM (inactive)	19.3 µM (inactive)	36.4 µM (inactive)	> 76.9 µM (inactive)	23.7 µM (inactive)	68.7 µM (inactive)	19.9 µM (inactive)	29.9 µM (inactive)	41.7 µM (inactive)	31.4 µM (inactive)	> 54 µM (inactive)	168 µM (inactive)	> 90.2 µM (inactive)	28.1 µM (inactive)	10.6 µM (inactive)
O=C(O)c1cc(/N=N/c2ccc([As](=O)(O)O)cc2)ccc1O	> 100 µM (inactive)	> 100 µM (inactive)	> 100 µM (inactive)	> 100 µM (inactive)	> 100 µM (inactive)	> 100 µM (inactive)	> 100 µM (inactive)	> 100 µM (inactive)	> 100 µM (inactive)	> 100 µM (inactive)	> 100 µM (inactive)	> 100 µM (inactive)	> 100 µM (inactive)	> 100 µM (inactive)	> 100 µM (inactive)	> 100 µM (inactive)	> 100 µM (inactive)	> 100 µM (inactive)	> 100 µM (inactive)	> 100 µM (inactive)
C=C1C(=O)OC2/C=C(\CO)C3OC3C3OC3(C)CC(OC(=O)/C(=C/C)CO)C12 (stereo not given)	36.6 µM (inactive)	> 100 µM (inactive)	45.4 µM (inactive)	54.7 µM (inactive)	53.8 µM (inactive)	35.8 µM (inactive)	30.1 µM (inactive)	> 100 µM (inactive)	55.2 µM (inactive)	9.33 µM (inactive)	> 100 µM (inactive)	45.4 µM (inactive)	> 100 µM (inactive)	> 100 µM (inactive)	86.3 µM (inactive)	44 µM (inactive)	50.7 µM (inactive)	> 100 µM (inactive)	28.2 µM (inactive)	17 µM (inactive)
CCc1ccc(/C=C/C(=O)C2CN(CC)CCC2(O)/C=C/c2ccc(CC)cc2)cc1 (stereo not given)	3.23 µM (inactive)	2.06 µM (inactive)	4.68 µM (inactive)	1.83 µM (inactive)	1.88 µM (inactive)	1.79 µM (inactive)	1.88 µM (inactive)	4.09 µM (inactive)	1.66 µM (inactive)	1.87 µM (inactive)	1.71 µM (inactive)	4.2 µM (inactive)	6.92 µM (inactive)	2.34 µM (inactive)	3.3 µM (inactive)	4.75 µM (inactive)	3.16 µM (inactive)	2.94 µM (inactive)	1.71 µM (inactive)	1.36 µM (inactive)
COC(=O)[C@@]12OC[C@]34[C@H]([C@@H](O)[C@@H]1O)[C@@]1(C)CC(=O)C(O)=C(C)[C@@H]1C[C@H]3OC(=O)[C@H](OC(=O)/C=C(\C)C(C)C)[C@@H]24 [BRUCEANTIN]	< 0.0101 µM (active)	0.02 µM (active)	0.02 µM (active)	0.02 µM (active)	0.0188 µM (active)	0.02 µM (active)	0.02 µM (active)	0.0222 µM (active)	0.0242 µM (active)	0.02 µM (active)	0.0247 µM (active)	0.0211 µM (active)	0.0208 µM (active)	0.021 µM (active)	0.02 µM (active)	0.0223 µM (active)	0.0265 µM (active)	0.02 µM (active)	0.00512 µM (active)	0.02 µM (active)
